Experiment in all cases: growth of human tumour cells (NCI), 48 h
Test [1] concerns OVCAR-4.
Test [2] deals with OVCAR-5.
Test [3] deals with M14.
Test [4] deals with MCF7.
Test [5] has as its system SF-539.
In test [6] the test system is SR.
Test [7] deals with NCI-H460.
Test [8] relates to UACC-62.
Test [9] deals with DU-145.
Test [10] deals with SF-268.
Test [11] has as its system Hs-578T.
The test system of test [12] is SN12C.
For test [13], the system named is UACC-257.
In test [14] the test system is SNB-19.
Test [15] concerns HCT-15.
Test [16] has as its system MDA-MB-435.
Test [17] has as its system K562.
Test [18] has as its system SK-OV-3.
Test [19] concerns NCI-H23.
Test [20] has as its system ACHN.

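Cultured in 96-well plates, cells were exposed to test compound for 48 hours across five concentrations. Here, GI50 denotes the concentration required for 50% inhibition of growth.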 Activity calls are given as the source filed them. Cut-off read from the data, not from the text of the source: active = GI50 up to about 1.1 µM and inactive = higher.

On to `Cc1ccnc(NC(=S)Nc2cccc(Cl)c2)c1`, for which the GI50 in test [1], in [2], in [3], in test [4], in test [5] and in test [6] was > 100 µM (inactive) each time. The GI50 in [7] is > 100 µM (inactive); in test [8] it was > 100 µM (inactive); in test [9], > 100 µM (inactive); in test [10], > 100 µM (inactive); in test [11], 74.1 µM (inactive); in [12] it was > 100 µM (inactive). In addition, the GI50 is > 100 µM (inactive) in test [13]; > 100 µM (inactive) in [14]; above 100 µM in [15]; > 100 µM (inactive) in [16]; > 100 µM (inactive) in [17]; > 100 µM (inactive) in test [18].

As to `O=C(N/N=C/C=C/c1ccc([N+](=O)[O-])o1)c1ccc(C(=O)N/N=C/C=C/c2ccc([N+](=O)[O-])o2)cc1`, the GI50 in [1] was > 72.3 µM (inactive); in test [2], > 100 µM (inactive); in test [3] it was 14.8 µM (inactive); in test [4], 34.4 µM (inactive); in [5], 6.18 µM (inactive); in [6] it was 17.3 µM (inactive). Further, the GI50 in test [7] was > 40.8 µM (inactive); in test [8], > 86.3 µM (inactive); in test [9], > 47 µM (inactive); in test [10], 15.8 µM (inactive); in [11], > 100 µM (inactive); in test [12], > 37.9 µM (inactive). Besides, the GI50 in [19] is 49.8 µM (inactive); in test [14] it was 43.3 µM (inactive); in [15], 37.4 µM; in [16], 37.2 µM (inactive); in [17], 33.1 µM (inactive); in test [18], > 100 µM (inactive). Moreover, the GI50 in test [20] was 32.6 µM (inactive).

With `O=c1c2cc([N+](=O)[O-])cnc2sn1-c1ccc([N+](=O)[O-])cc1`, the GI50 in [1] is 27.7 µM (inactive); in [2], 59.2 µM (inactive); in [3], 48.8 µM (inactive); in [4], 22.4 µM (inactive); in test [5], 29.2 µM (inactive); in test [6] it was 22.1 µM (inactive). For the same molecule, the GI50 in [7] is 45.1 µM (inactive); in [8], 66.4 µM (inactive); in test [9], 45.7 µM (inactive); in [10] it was 27.1 µM (inactive); in [11], 29.2 µM (inactive); in test [12], 47.2 µM (inactive). Also, the GI50 in test [13] is > 100 µM (inactive); in test [19], 31.2 µM (inactive); in test [14], 30.1 µM (inactive); in test [15], 28.5 µM; in test [16] it was 84.1 µM (inactive); in test [18], 35.5 µM (inactive). Also, the GI50 in test [20] is 71.3 µM (inactive).

For the molecule `O=NC1C(Cl)C2CC1C1C(Br)C(Br)CC21` (stereo not given), the GI50 in [1] was > 100 µM (inactive); in [2], > 100 µM (inactive); in test [3] it was > 100 µM (inactive); in [4], > 100 µM (inactive); in [5] it was > 100 µM (inactive); in test [6] it was 48.9 µM (inactive). Moreover, the GI50 in [7], in [8], in [9], in test [10], in test [11] and in test [12] was > 100 µM (inactive) throughout. Also, the GI50 in test [19] was > 100 µM (inactive); in test [14] it was > 100 µM (inactive); in test [15], above 100 µM; in test [16], > 100 µM (inactive); in test [17], > 100 µM (inactive); in test [18] it was > 100 µM (inactive). Moreover, the GI50 in [20] is > 100 µM (inactive).

The record behind these values is ChEMBL document CHEMBL1201862, “PubChem BioAssay data set” (2004).
